According to patent US8613927B2, “High affinity human antibodies to human nerve growth factor” (Regeneron Pharmaceuticals, Inc., priority 2007, dated 2013):

Legend:
C57BL/6 mice = assay: Post-operative incision pain model, mechanical allodynia in von Frey test; assay type: in vivo, mouse; conditions: Table 17
Description: Thermal hyperalgesia was studied in the Hargreaves' test and mechanical allodynia was tested in the von Frey test. In this latter test, mice were tested after being acclimated for 2-3 hours for 4 days in an apparatus with a wire mesh floor. The test was performed by applying, in ascending order, a series of von Frey hairs through the wire mesh onto the plantar surface of the hind paw with the incision. A response was considered positive if the paw was raised from the platform in response to application of the filament. Starting from the thinnest hair, each von Frey filament was applied up to five times until a response was observed.

[1] = target: T1, human NT-3 binding to human TrkB-hFc (Homo sapiens, UniProt P20783); assay: BIACORE, NT-3 binding to TrkB-hFc surface in presence of antibody; conditions: 20 nM NT-3 + 500 nM sample; normalized to IgG1 control
T1 sequence (P20783 139-257): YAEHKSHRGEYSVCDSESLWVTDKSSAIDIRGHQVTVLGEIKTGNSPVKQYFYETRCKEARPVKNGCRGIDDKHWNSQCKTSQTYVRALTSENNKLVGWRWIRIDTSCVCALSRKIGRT
Description: (§1) Human TrkA-hFc (9300 RU), human TrkB-hFc (6000 RU), human TrkC-hFc (9100 RU) and human p75-hFc (7500 RU) were covalently coupled to BIACORE® CM5 chip surfaces by amine-coupling procedure. […] The binding mixture was first incubated at room temperature to reach equilibrium (about 1 hr) and then was injected over the above TrkA-hFc, TrkB-hFc, TrkC-hFc and p75-hFc surfaces. The level of human NT-3 binding in each sample was measured. The binding RU from each sample mixture was normalized according to the RU value from the negative control sample (i.e., 20 nM human NT-3 with 500 nM AVASTIN®) and presented as % binding to Trk surfaces (Table 9).

[2] = target: T2, human NT-3 binding to human TrkC-hFc (Homo sapiens, UniProt P20783); assay: BIACORE, NT-3 binding to TrkC-hFc surface in presence of antibody; conditions: 20 nM NT-3 + 500 nM sample; normalized to IgG1 control
T2 sequence (P20783 139-257): T1 sequence (P20783 139-257)
Description: as §1

[3] = target: T3, human NT-3 binding to human TrkA-hFc (Homo sapiens, UniProt P20783); assay: BIACORE, NT-3 binding to TrkA-hFc surface in presence of antibody; conditions: 20 nM NT-3 + 500 nM sample; normalized to IgG1 control
T3 sequence (P20783 139-257): T1 sequence (P20783 139-257)
Description: as §1

[4] = target: T4, human NT-3 binding to human p75-hFc (Homo sapiens, UniProt P20783); assay: BIACORE, NT-3 binding to p75-hFc surface in presence of antibody; conditions: 20 nM NT-3 + 500 nM sample; normalized to IgG1 control
T4 sequence (P20783 139-257): T1 sequence (P20783 139-257)
Description: as §1

C57BL/6 male mice = assay: Seltzer model of neuropathic pain, Hargreaves' test; assay type: in vivo, mouse
From the text: Neuropathic pain. The mouse Seltzer model of neuropathic pain (Malmberg et al. (1998) Pain 76:215-222) was used with C57BL/6 male mice, in which a partial nerve injury was produced by tying a tight ligature with a 7-0 silk suture around approximately ⅓ to ½ the diameter of the sciatic nerve of one single thigh per mouse. Post-surgery, the mice were allowed to recover for at least two days and then they were studied for several weeks post-surgery for thermal hyperalgesia in the Hargreaves' test. Controls were sham-operated mice in which the sciatic nerve was exposed and elevated but not tied. Following surgery, the mice were tested at day […] and at day 7 post-surgery to confirm that the thermal hyperalgesia had developed.
Following the Seltzer surgery, mice were tested at days 5 and 7 post-surgery to confirm that the thermal hyperalgesia had developed.

## IgG1 Control: negative binding control, IgG1 control (AVASTIN®; Genentech, CA)
C57BL/6 mice; 25 mg/kg i.p. on day 1 post-surgery, Baseline
  Paw Withdrawal Threshold: 1.314 ± 0.137 g
C57BL/6 mice; 25 mg/kg i.p., 5 hr after treatment
  Paw Withdrawal Threshold: 0.011 ± 0.002 g
C57BL/6 mice; 25 mg/kg i.p., 22 hr after treatment
  Paw Withdrawal Threshold: 0.029 ± 0.004 g
C57BL/6 mice; 25 mg/kg i.p., 45 hr after treatment
  Paw Withdrawal Threshold: 0.190 ± 0.135 g
C57BL/6 mice; 25 mg/kg i.p., 70 hr after treatment
  Paw Withdrawal Threshold: 0.194 ± 0.034 g
C57BL/6 mice; 25 mg/kg i.p., Day 1 (post-surgery, before injection)
  Paw Withdrawal Threshold: 0.011 ± 0.002 g
[1]
  % binding to TrkB-hFc surface: 100%
[2]
  % binding to TrkC-hFc surface: 100%
[3]
  % binding to TrkA-hFc surface: 100%
[4]
  % binding to p75-hFc surface: 100%
C57BL/6 male mice; 50 mg/kg s.c. or i.p. at day 7 post-surgery, p<0.001-0.05
  pain relief: no effect
C57BL/6 male mice; Table 23, Seltzer, 100 mg/kg s.c. at day 7, day 0 after surgery
  mean percent change from Hargreaves baseline: 0.0 ± 0.0%
C57BL/6 male mice; Table 23, Seltzer, 100 mg/kg s.c. at day 7, day 4
  mean percent change from Hargreaves baseline: −46.9 ± 6.5%
C57BL/6 male mice; Table 23, Seltzer, 100 mg/kg s.c. at day 7, day 7
  mean percent change from Hargreaves baseline: −55.3 ± 6.4%
C57BL/6 male mice; Table 23, Seltzer, 100 mg/kg s.c. at day 7, day 8
  mean percent change from Hargreaves baseline: −55.6 ± 4.3%
C57BL/6 male mice; Table 23, Seltzer, 100 mg/kg s.c. at day 7, day 11
  mean percent change from Hargreaves baseline: −57.3 ± 5.1%
C57BL/6 male mice; Table 23, Seltzer, 100 mg/kg s.c. at day 7, day 13
  mean percent change from Hargreaves baseline: −59.7 ± 6.5%
C57BL/6 male mice; Table 23, Seltzer, 100 mg/kg s.c. at day 7, day 16
  mean percent change from Hargreaves baseline: −51.2 ± 4.0%
C57BL/6 male mice; Table 23, Seltzer, 100 mg/kg s.c. at day 7, day 18
  mean percent change from Hargreaves baseline: −57.7 ± 4.6%
C57BL/6 male mice; Table 23, Seltzer, 100 mg/kg s.c. at day 7, day 20
  mean percent change from Hargreaves baseline: −53.2 ± 4.9%
C57BL/6 male mice; Table 23, Seltzer, 100 mg/kg s.c. at day 7, day 24
  mean percent change from Hargreaves baseline: −54.9 ± 4.1%
C57BL/6 male mice; Table 23, Seltzer, 100 mg/kg s.c. at day 7, day 28
  mean percent change from Hargreaves baseline: −51.81 ± 4.1%
C57BL/6 male mice; Table 23, Seltzer, 100 mg/kg s.c. at day 7, day 31
  mean percent change from Hargreaves baseline: −49.7 ± 2.5%
C57BL/6 male mice; Table 23, Sham-operated, 100 mg/kg s.c. at day 7, day 0 after surgery
  mean percent change from Hargreaves baseline: 0.0 ± 0.0%
C57BL/6 male mice; Table 23, Sham, 100 mg/kg s.c. at day 7, day 4
  mean percent change from Hargreaves baseline: −7.2 ± 3.7%
C57BL/6 male mice; Table 23, Sham, 100 mg/kg s.c. at day 7, day 7
  mean percent change from Hargreaves baseline: 8.7 ± 13.2%
C57BL/6 male mice; Table 23, Sham, 100 mg/kg s.c. at day 7, day 8
  mean percent change from Hargreaves baseline: −9.4 ± 4.1%
C57BL/6 male mice; Table 23, Sham, 100 mg/kg s.c. at day 7, day 11
  mean percent change from Hargreaves baseline: 14.7 ± 11.4%
C57BL/6 male mice; Table 23, Sham, 100 mg/kg s.c. at day 7, day 13
  mean percent change from Hargreaves baseline: −6.9 ± 3.3%
C57BL/6 male mice; Table 23, Sham, 100 mg/kg s.c. at day 7, day 16
  mean percent change from Hargreaves baseline: 2.3 ± 3.0%
C57BL/6 male mice; Table 23, Sham, 100 mg/kg s.c. at day 7, day 18
  mean percent change from Hargreaves baseline: 0.2 ± 2.8%
C57BL/6 male mice; Table 23, Sham, 100 mg/kg s.c. at day 7, day 20
  mean percent change from Hargreaves baseline: 3.6 ± 2.4%
C57BL/6 male mice; Table 23, Sham, 100 mg/kg s.c. at day 7, day 24
  mean percent change from Hargreaves baseline: 1.5 ± 2.9%
C57BL/6 male mice; Table 23, Sham, 100 mg/kg s.c. at day 7, day 28
  mean percent change from Hargreaves baseline: 0.7 ± 2.5%
C57BL/6 male mice; Table 23, Sham, 100 mg/kg s.c. at day 7, day 31
  mean percent change from Hargreaves baseline: 1.1 ± 2.3%
C57BL/6 male mice; Table 24, 100 mg/kg s.c. injected Day 7 post-surgery, Baseline
  mean percent change from Hargreaves baseline: 0.0 ± 0.0%
C57BL/6 male mice; Table 24, 100 mg/kg s.c. injected Day 14 post-surgery, Baseline
  mean percent change from Hargreaves baseline: 0.0 ± 0.0%
C57BL/6 male mice; Table 24, 100 mg/kg s.c. injected Day 21 post-surgery, Baseline
  mean percent change from Hargreaves baseline: 0.0 ± 0.0%
C57BL/6 male mice; Table 24, injected Day 7, Day 5 after surgery
  mean percent change from Hargreaves baseline: −53.5 ± 5.9%
C57BL/6 male mice; Table 24, injected Day 7, Day 8
  mean percent change from Hargreaves baseline: −56.7 ± 3.8%
C57BL/6 male mice; Table 24, injected Day 7, Day 10
  mean percent change from Hargreaves baseline: −64.3 ± 2.6%
C57BL/6 male mice; Table 24, injected Day 7, Day 14
  mean percent change from Hargreaves baseline: −66.9 ± 5.1%
C57BL/6 male mice; Table 24, injected Day 7, Day 15
  mean percent change from Hargreaves baseline: −60.6 ± 4.0%
C57BL/6 male mice; Table 24, injected Day 7, Day 17
  mean percent change from Hargreaves baseline: −58.9 ± 3.5%
C57BL/6 male mice; Table 24, injected Day 7, Day 21
  mean percent change from Hargreaves baseline: −54.1 ± 9.6%
C57BL/6 male mice; Table 24, injected Day 7, Day 22
  mean percent change from Hargreaves baseline: −56.3 ± 4.9%
C57BL/6 male mice; Table 24, injected Day 7, Day 24
  mean percent change from Hargreaves baseline: −55.6 ± 5.1%
